Measured values taken from patent publication US12128079B2, “Enteric aerobization therapy” (LPOXY THERAPEUTICS, INC., priority 2021, dated 2024).
“Also recorded” adds a separate entry of the source. Read-outs that look alike come from different tables or passages of the source.

Tests used:
[1] = up to the maximum bolus tested, 200 microliters every 6 hours (8 mL/kg per bolus; 32 mL/kg/day)
Description: In a separate experiment using the above conditions the tolerance of bolus injection of 100% oxygen gas was tested.

[2] = system: Clostridioides difficile ATCC 43255; conditions: for clinical severity / clinical observations versus infection control group: FIGS. 7-10; for animals showing clinical signs of infection (recurrence) in the 2nd week after inoculation and treatment: days 8-14; for survival: mice followed 14 days after inoculation, treatment day 0 to day 4; for onset of action / cure rate: mouse CDI model; for cure rate: 14 days after inoculation
Description: Thirty C57BL/6 female mice (18-22 g) fitted with duodenal catheters externalized and fitted with access button ports were purchased from Charles River Laboratories and singly housed in a temperature and humidity-controlled room with a 12-hour light cycle. The mice were divided into 3 groups of 10. All procedures used in these experimental protocols were in compliance with the Animal Welfare Act, the Guide for the Care and Use of Laboratory Animals, and the Office of Laboratory Animal Welfare.
The mice were pretreated with an antibiotic cocktail in their drinking water for 8 consecutive days. This antibiotic cocktail was composed of 1% glucose, 500 mcg/mL kanamycin, 44 mcg/mL gentamicin, 1062.5 units per milliliter colistin, 269 mcg/mL metronidazole, 156 mcg/mL ciprofloxacin, 100 mcg/mL ampicillin, and 56 mcg/mL vancomycin. The antibiotic cocktail and drinking water were replaced every 2 to 3 days. Five days prior to infection the antibiotic water was removed and normal drinking water was provided to the animals. Three days prior to infection the animals received a single dose of clindamycin 10 mg per kilogram via oral administration in a volume of 10 mL per kilogram.
On study Day 0 mice were inoculated with the bacterial suspension of 5×10^5 CFU Clostridioides difficile ATCC 43255 via oral gavage. Eight hours after inoculation administration of vehicle, antibiotic control, and test article was initiated according to the following. The vehicle a.k.a. infection control group of 10 mice received 80 μL per hour 100% pure nitrogen gas via duodenal catheter. The infection control group of 10 mice received 50 mg/kg vancomycin via oral gavage once daily. […] Administration was continued from study day 0 to study day 4, a total of 5 days. The mice were followed for 14 days after inoculum recording daily weights and clinical observations. Animals that appeared severely moribund were euthanized. At the end of the study all animals were humanely euthanized.

SMILES	adverse effects of bolus injection [1]	clinical severity / clinical observations versus infection control group [2]	clinical severity / clinical observations versus infection control group ([2]; listed as Enteric aerobization therapy)	animals showing clinical signs of infection (recurrence) in the 2nd week after inoculation and treatment [2]	adverse effects due to gas infusion ([2]; infusion via duodenal catheter 3.2 mL/kg/hr, 76.8 mL/kg/day)	survival [2] [%]	onset of action [2]	cure rate [2] [%]	animals showing clinical signs of infection (recurrence) in the 2nd week after inoculation and treatment ([2]; listed as antibiotic control group)
O=O [EAT, oxygen]	No adverse effects were observed	fewer sick animals compared to the infection control group; also recorded: mildly ill compared to the infection control group	reduces the severity of disease, accelerates recovery	no recurrent infections	no adverse effects	100	slower onset of action	100	–
CN[C@H](CC(C)C)C(=O)N[C@H]1C(=O)N[C@@H](CC(N)=O)C(=O)N[C@H]2C(=O)N[C@H]3C(=O)N[C@H](C(=O)N[C@H](C(=O)O)c4cc(O)cc(O)c4-c4cc3ccc4O)[C@H](O)c3ccc(c(Cl)c3)Oc3cc2cc(c3O[C@@H]2O[C@H](CO)[C@@H](O)[C@H](O)[C@H]2O[C@H]2C[C@](C)(N)[C@H](O)[C@H](C)O2)Oc2ccc(cc2Cl)[C@H]1O [vancomycin, reference compound]	–	–	–	70%	–	100	more rapid onset of action	30	Seventy
